Experimental data as given in US20140179664A1, “Heterocyclyl Pyrimidine Analogues As JAK Inhibitors” (Cellzome Limited, priority 2011, published 2014).

Columns and labels:
Assay type in all cases: binding
JAK2 = molecular target: T1, JAK2 (Homo sapiens, UniProt O60674); assay: Kinobeads assay, JAK2; conditions: mixed Molt4/Ramos lysate, read-out: Inhibition values (IC50) JAK2
T1 construct: endogenous in cells; host or cells: Molt4 (ATCC CRL-1582) and Ramos (ATCC CRL-1596), mixed lysate 1:2
Protocol: (§1) The compounds of the present invention as described in the previous examples were tested in a Kinobeads™ assay as described for ZAP-70 (WO-A 2007/137867). Briefly, test compounds (at various concentrations) and the affinity matrix with the immobilized aminopyrido-pyrimidine ligand 24 were added to cell lysate aliquots and allowed to bind to the proteins in the lysate sample. After the incubation time the beads with captured proteins were separated from the lysate. Bound proteins were then eluted and the presence of JAK1, JAK2, JAK3 and TYK2 was detected and quantified using specific antibodies in a dot blot procedure and the Odyssey infrared detection system. Dose response curves for individual kinases were generated and IC50 values calculated. Kinobeads™ assays for ZAP-70 (WO-A 2007/137867) and for kinase selectivity profiling (WO-A 2006/134056) have been previously described.
(§2) The affinity matrix was washed two times with 15 mL of lx DP buffer containing 0.2% NP40 (IGEPAL® CA-630, Sigma, #13021) and then resuspended in 1×DP buffer containing 0.2% NP40 (3% beads slurry).
(§3) 5×DP buffer: 250 mM Tris-HCl pH 7.4, 25% Glycerol, 7.5 mM MgCl2, 750 mM NaCl, 5 mM Na3VO4; filter the 5×DP buffer through a 0.22 μm filter and store in aliquots at −80° C. The 5×DP buffer is diluted with H2O to 1×DP buffer containing 1 mM DTT and 25 mM NaF.
(§4) Stock solutions of test compounds were prepared in DMSO. In a 96 well plate […] solution of diluted test compounds at 5 mM in DMSO were prepared. Starting with this solution a 1:3 dilution series (9 steps) was prepared. For control experiments (no test compound) a buffer containing 2% DMSO was used.
(§5) Molt4 cells (ATCC catalogue number CRL-1582) and Ramos cells (ATCC catalogue number CRL-1596) were grown in 1 L Spinner flasks (Integra Biosciences, #182101) in suspension in RPMI 1640 medium (Invitrogen, #21875-034) supplemented with 10% Fetal Bovine Serum (Invitrogen) at a density between 0.15×10^6 and 1.2×10^6 cells/mL. Cells were harvested by centrifugation, washed once with 1×PBS buffer (Invitrogen, #14190-094) and cell pellets were frozen in liquid nitrogen and subsequently stored at −80° C. Cells were homogenized in a Potter S homogenizer in lysis buffer: 50 mM Tris-HCl, 0.8% NP40, 5% glycerol, 150 mM NaCl, 1.5 mM MgCl2, 25 mM NaF, 1 mM sodium vanadate, 1 mM DTT, pH 7.5. One complete EDTA-free tablet (protease inhibitor cocktail, Roche Diagnostics, 1873580) per 25 mL buffer was added. The material was dounced 10 times using a mechanized POTTER S, transferred to 50 mL falcon tubes, incubated for 30 minutes on ice and spun down for 10 minutes at 20,000 g at 4° C. (10,000 rpm in Sorvall SLA600, precooled). The supernatant was transferred to an ultracentrifuge (UZ)-polycarbonate tube (Beckmann, 355654) and spun for 1 hour at 100.000 g at 4° C. (33.500 rpm in Ti50.2, precooled). The supernatant was transferred again to a fresh 50 mL falcon tube, the protein concentration was determined by a Bradford assay (BioRad) and samples containing 50 mg of protein per aliquot were prepared. The samples were immediately used for experiments or frozen in liquid nitrogen and stored frozen at −80° C.
(§6) Cell lysate (approximately 50 mg protein per plate) was thawed in a water bath at room temperature and then stored on ice. To the thawed cell lysate 1×DP 0.8% NP40 buffer containing protease inhibitors (1 tablet for 25 mL buffer; EDTA-free protease inhibitor cocktail; Roche Diagnostics 1873580) was added in order to reach a final protein concentration of 10 mg/mL total protein. The diluted cell lysate was stored on ice. Mixed Molt4/Ramos lysate was prepared by combining one volume of Molt4 lysate and two volumes of Ramos lysate (ratio 1:2).
(§7) To a 96 well filter plate (Multiscreen HTS, BV Filter Plates, Millipore #MSBVN1250) were added per well: 100 μL affinity matrix (3% beads slurry), […], of compound solution, and 50 μL of diluted lysate. […]

TYK2 = molecular target: T2, TYK2 (Homo sapiens, UniProt P29597); assay: Kinobeads assay, TYK2; conditions: mixed Molt4/Ramos lysate, read-out: Inhibition values (IC50) TYK2
T2 construct: endogenous in cells; host or cells: Molt4 (ATCC CRL-1582) and Ramos (ATCC CRL-1596), mixed lysate 1:2
T2 sequence (P29597 whole entry): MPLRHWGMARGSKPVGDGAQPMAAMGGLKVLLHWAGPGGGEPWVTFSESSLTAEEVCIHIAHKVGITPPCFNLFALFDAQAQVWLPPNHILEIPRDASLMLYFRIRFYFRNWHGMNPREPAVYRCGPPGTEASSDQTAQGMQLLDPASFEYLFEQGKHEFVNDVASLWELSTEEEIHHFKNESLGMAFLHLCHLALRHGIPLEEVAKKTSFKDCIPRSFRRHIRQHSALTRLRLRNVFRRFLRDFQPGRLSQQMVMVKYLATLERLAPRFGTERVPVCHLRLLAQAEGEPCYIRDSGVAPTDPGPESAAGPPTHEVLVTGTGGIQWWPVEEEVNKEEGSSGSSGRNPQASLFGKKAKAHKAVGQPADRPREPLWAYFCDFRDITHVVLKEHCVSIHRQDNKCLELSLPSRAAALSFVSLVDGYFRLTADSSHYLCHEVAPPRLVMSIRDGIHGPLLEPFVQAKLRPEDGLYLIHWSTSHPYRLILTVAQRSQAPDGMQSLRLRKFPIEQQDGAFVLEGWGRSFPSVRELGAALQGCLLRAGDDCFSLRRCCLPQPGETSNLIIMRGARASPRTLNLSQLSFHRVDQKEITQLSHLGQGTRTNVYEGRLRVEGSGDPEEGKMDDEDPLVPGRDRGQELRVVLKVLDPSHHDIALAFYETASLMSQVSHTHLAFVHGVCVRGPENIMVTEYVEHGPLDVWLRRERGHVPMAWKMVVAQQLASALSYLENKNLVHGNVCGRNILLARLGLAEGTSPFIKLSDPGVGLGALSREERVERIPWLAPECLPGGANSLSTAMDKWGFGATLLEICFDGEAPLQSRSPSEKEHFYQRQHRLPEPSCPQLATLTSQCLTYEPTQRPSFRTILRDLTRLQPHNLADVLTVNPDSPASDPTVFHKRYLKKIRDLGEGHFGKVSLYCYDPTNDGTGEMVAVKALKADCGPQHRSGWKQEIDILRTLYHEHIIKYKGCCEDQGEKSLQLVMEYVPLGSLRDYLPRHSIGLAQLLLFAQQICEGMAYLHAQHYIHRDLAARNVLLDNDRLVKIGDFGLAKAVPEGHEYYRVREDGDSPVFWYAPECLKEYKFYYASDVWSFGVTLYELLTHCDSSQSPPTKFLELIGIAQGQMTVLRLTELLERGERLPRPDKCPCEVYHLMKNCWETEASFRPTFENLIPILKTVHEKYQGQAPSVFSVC
Protocol: as §1, §2, §3, §4, §5, §6, §7

JAK1 = molecular target: T3, JAK1 (Homo sapiens, UniProt P23458); assay: Kinobeads assay, JAK1; conditions: mixed Molt4/Ramos lysate, read-out: Inhibition values (IC50) JAK1
T3 construct: endogenous in cells; host or cells: Molt4 (ATCC CRL-1582) and Ramos (ATCC CRL-1596), mixed lysate 1:2
T3 sequence (P23458 whole entry): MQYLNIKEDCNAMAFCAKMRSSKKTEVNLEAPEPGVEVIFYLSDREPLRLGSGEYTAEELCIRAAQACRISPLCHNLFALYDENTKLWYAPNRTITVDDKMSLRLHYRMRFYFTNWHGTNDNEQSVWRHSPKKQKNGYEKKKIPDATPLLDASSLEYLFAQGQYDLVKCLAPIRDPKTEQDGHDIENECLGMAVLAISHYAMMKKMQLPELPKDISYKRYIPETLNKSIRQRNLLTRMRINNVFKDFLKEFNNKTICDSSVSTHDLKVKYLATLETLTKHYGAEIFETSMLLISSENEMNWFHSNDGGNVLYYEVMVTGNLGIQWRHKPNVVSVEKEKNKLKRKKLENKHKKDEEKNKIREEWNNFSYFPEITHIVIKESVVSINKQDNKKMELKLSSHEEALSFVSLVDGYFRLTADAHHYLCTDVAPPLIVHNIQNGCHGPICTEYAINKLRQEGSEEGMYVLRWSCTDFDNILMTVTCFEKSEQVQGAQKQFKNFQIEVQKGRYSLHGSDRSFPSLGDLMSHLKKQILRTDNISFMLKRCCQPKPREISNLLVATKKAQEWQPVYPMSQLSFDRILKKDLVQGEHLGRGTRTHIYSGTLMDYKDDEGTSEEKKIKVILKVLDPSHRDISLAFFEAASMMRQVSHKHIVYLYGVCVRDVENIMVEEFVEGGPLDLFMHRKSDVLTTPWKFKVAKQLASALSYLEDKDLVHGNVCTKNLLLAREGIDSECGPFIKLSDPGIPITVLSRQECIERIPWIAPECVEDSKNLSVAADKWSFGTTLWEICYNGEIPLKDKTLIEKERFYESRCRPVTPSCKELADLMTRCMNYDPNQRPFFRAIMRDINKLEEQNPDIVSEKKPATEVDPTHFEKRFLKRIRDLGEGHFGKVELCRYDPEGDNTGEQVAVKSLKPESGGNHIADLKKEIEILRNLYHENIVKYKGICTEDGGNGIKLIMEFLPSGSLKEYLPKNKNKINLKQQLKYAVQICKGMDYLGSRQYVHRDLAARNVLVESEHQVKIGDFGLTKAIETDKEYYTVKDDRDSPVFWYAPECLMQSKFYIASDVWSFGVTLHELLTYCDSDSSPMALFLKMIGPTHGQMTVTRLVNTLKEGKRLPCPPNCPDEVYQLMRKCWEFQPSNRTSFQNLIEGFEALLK
Protocol: After the incubation time the beads with captured proteins were separated from the lysate. Bound proteins were then eluted and the presence of JAK1, JAK2, JAK3 and TYK2 was detected and quantified using specific antibodies in a dot blot procedure and the Odyssey infrared detection system. Dose response curves for individual kinases were generated and IC50 values calculated.
as §3
Stock solutions of test compounds were prepared in DMSO. […] Starting with this solution a 1:3 dilution series (9 steps) was prepared. For control experiments (no test compound) a buffer containing 2% DMSO was used.
Cells were homogenized in a Potter S homogenizer in lysis buffer: 50 mM Tris-HCl, 0.8% NP40, 5% glycerol, 150 mM NaCl, 1.5 mM MgCl2, 25 mM NaF, 1 mM sodium vanadate, 1 mM DTT, pH 7.5. […] The material was dounced 10 times using a mechanized POTTER S, transferred to 50 mL falcon tubes, incubated for 30 minutes on ice and spun down for 10 minutes at 20,000 g at 4° C. (10,000 rpm in Sorvall SLA600, precooled). […] (33.500 rpm in Ti50.2, precooled). The supernatant was transferred again to a fresh 50 mL falcon tube, the protein concentration was determined by a Bradford assay (BioRad) and samples containing 50 mg of protein per aliquot were prepared. The samples were immediately used for experiments or frozen in liquid nitrogen and stored frozen at −80° C.
Cell lysate (approximately 50 mg protein per plate) was thawed in a water bath at room temperature and then stored on ice. […] The diluted cell lysate was stored on ice. Mixed Molt4/Ramos lysate was prepared by combining one volume of Molt4 lysate and two volumes of Ramos lysate (ratio 1:2).
Plates were sealed and incubated for 3 hours in a cold room on a plate shaker (Heidolph tiramax 1000) at 750 rpm. Afterwards the plate was washed 3 times with 230 μL washing buffer (1×DP 0.4% NP40). […] The eluate was frozen quickly at −80° C. and stored at −20° C.
Afterwards the membrane was washed twice for 10 minutes with PBS buffer containing 0.2% Tween 20 at room temperature. […] Afterwards the membrane was washed twice for 10 minutes each with 1×PBS buffer containing 0.2% Tween 20 at room temperature. Then the membrane was rinsed once with PBS buffer to remove residual Tween 20. The membrane was kept in PBS buffer at 4° C. and then scanned with the Odyssey instrument. Fluorescence signals were recorded and analysed according to the instructions of the manufacturer.

T1 sequence (O60674 whole entry): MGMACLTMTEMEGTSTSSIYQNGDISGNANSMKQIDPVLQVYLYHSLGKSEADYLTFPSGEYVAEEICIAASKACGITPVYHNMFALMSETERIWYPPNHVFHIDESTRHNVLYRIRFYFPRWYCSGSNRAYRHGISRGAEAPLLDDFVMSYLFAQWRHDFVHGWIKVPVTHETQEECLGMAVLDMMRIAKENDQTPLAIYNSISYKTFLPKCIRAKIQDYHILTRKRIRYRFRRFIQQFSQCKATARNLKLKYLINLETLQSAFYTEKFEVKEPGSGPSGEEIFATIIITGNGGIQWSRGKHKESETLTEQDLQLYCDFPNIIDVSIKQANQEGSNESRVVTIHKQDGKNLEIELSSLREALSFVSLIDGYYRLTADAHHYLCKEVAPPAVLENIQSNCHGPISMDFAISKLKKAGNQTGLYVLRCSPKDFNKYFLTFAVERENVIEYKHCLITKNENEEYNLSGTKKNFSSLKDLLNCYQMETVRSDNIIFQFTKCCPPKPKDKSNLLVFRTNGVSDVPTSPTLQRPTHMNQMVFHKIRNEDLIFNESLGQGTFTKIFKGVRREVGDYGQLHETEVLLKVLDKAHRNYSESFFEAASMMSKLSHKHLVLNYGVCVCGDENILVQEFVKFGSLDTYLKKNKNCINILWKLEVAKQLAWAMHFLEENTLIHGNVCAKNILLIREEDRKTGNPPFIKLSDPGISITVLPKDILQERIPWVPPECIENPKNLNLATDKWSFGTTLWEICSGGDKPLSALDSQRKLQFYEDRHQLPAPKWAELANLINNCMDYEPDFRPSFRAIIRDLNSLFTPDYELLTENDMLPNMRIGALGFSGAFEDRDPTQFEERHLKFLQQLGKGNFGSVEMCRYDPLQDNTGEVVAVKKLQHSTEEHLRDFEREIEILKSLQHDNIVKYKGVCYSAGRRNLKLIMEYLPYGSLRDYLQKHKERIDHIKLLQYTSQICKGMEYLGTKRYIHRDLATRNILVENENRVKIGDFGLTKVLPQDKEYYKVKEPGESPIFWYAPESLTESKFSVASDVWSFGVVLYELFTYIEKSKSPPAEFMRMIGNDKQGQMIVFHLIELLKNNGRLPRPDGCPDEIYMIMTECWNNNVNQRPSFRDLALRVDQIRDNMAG

| Compound | IC50 (JAK2) | IC50 (TYK2) | IC50 (JAK1) |
| --- | --- | --- | --- |
| OCCn1cc(Nc2ncc(Cl)c(N[C@H](CO)c3cc(F)cc(F)c3)n2)cn1 [Compound 143] | 0.1 to 1 µM | 0.1 to 1 µM | < 0.1 µM |
| NC(=O)Cn1cc(Nc2ncc(Cl)c(N[C@H](CO)c3cc(F)cc(F)c3)n2)cn1 [Compound 144] | 0.1 to 1 µM | 0.1 to 1 µM | < 0.1 µM |
| CNC(=O)Cn1cc(Nc2ncc(Cl)c(N[C@H](CO)c3cc(F)cc(F)c3)n2)cn1 [Compound 145] | 0.1 to 1 µM | 0.1 to 1 µM | < 0.1 µM |
| Cn1cc(Nc2ncc(F)c(N[C@H](CO)c3cc(F)ccc3F)n2)cn1 [Compound 146] | 1 to 10 µM | 0.1 to 1 µM | 0.1 to 1 µM |
| OCCn1cc(Nc2ncc(F)c(N[C@H](CO)c3cc(F)ccc3F)n2)cn1 [Compound 147] | 0.1 to 1 µM | 0.1 to 1 µM | 0.1 to 1 µM |
| CNC(=O)Cn1cc(Nc2ncc(F)c(N[C@H](CO)c3cc(F)ccc3F)n2)cn1 [Compound 148] | 1 to 10 µM | 0.1 to 1 µM | 0.1 to 1 µM |
| Cc1cnc(Nc2cnn(C)c2)nc1N[C@H](CO)c1cccc(-c2cnn(C)c2)c1 [Compound 149] | ≥ 10 µM | ≥ 10 µM | > 10 µM |
| Cn1cc(Nc2ncc(F)c(N[C@H](CO)c3cc(F)cc(-c4cnn(C)c4)c3)n2)cn1 [Compound 150] | ≥ 10 µM | ≥ 10 µM | 1 to 10 µM |
| Cn1cc(-c2cccc([C@@H](CO)Nc3nc(Nc4cnn(CCO)c4)ncc3Cl)c2)cn1 [Compound 151] | ≥ 10 µM | ≥ 10 µM | 1 to 10 µM |
| Cn1cc(-c2cc(F)cc([C@@H](CO)Nc3nc(Nc4cnn(CCO)c4)ncc3Cl)c2)cn1 [Compound 152] | 1 to 10 µM | 1 to 10 µM | 0.1 to 1 µM |
| Cn1cc(-c2cc(F)cc([C@@H](CO)Nc3nc(Nc4cnn(CCO)c4)ncc3F)c2)cn1 [Compound 153] | ≥ 10 µM | ≥ 10 µM | 1 to 10 µM |
| CNC(=O)Cn1cc(Nc2ncc(Cl)c(N[C@H](CO)c3cccc(-c4cnn(C)c4)c3)n2)cn1 [Compound 154] | 1 to 10 µM | 0.1 to 1 µM | 1 to 10 µM |
| CNC(=O)Cn1cc(Nc2ncc(F)c(N[C@H](CO)c3cccc(-c4cnn(C)c4)c3)n2)cn1 [Compound 155] | ≥ 10 µM | ≥ 10 µM | > 10 µM |
| CNC(=O)Cn1cc(Nc2ncc(Cl)c(N[C@H](CO)c3cc(F)cc(-c4cnn(C)c4)c3)n2)cn1 [Compound 156] | 1 to 10 µM | ≥ 10 µM | 1 to 10 µM |
| CNC(=O)Cn1cc(Nc2ncc(F)c(N[C@H](CO)c3cc(F)cc(-c4cnn(C)c4)c3)n2)cn1 [Compound 157] | ≥ 10 µM | ≥ 10 µM | 1 to 10 µM |

Continued, values first:

| IC50 (JAK2) | IC50 (TYK2) | IC50 (JAK1) | Compound |
| --- | --- | --- | --- |
| 1 to 10 µM | 1 to 10 µM | 1 to 10 µM | Cn1cc(Nc2ncc(F)c(N[C@H](CO)c3cc(F)cc(F)c3)n2)cn1 [Compound 158] |
| 1 to 10 µM | 0.1 to 1 µM | 0.1 to 1 µM | OCCn1cc(Nc2ncc(F)c(N[C@H](CO)c3cc(F)cc(F)c3)n2)cn1 [Compound 159] |
| 1 to 10 µM | 0.1 to 1 µM | 0.1 to 1 µM | NC(=O)Cn1cc(Nc2ncc(F)c(N[C@H](CO)c3cc(F)cc(F)c3)n2)cn1 [Compound 160] |
| 1 to 10 µM | 0.1 to 1 µM | 0.1 to 1 µM | CNC(=O)Cn1cc(Nc2ncc(F)c(N[C@H](CO)c3cc(F)cc(F)c3)n2)cn1 [Compound 161] |
| ≥ 10 µM | ≥ 10 µM | 1 to 10 µM | Cn1cc(Nc2ncc(Cl)c(N[C@H](CO)c3cccc(N4CCOCC4=O)c3F)n2)cn1 [Compound 162] |
| 0.1 to 1 µM | 0.1 to 1 µM | 0.1 to 1 µM | Cc1cnc(Nc2cnn(C)c2)nc1N[C@H](CO)c1cc(F)ccc1F [Compound 163] |
| 1 to 10 µM | 1 to 10 µM | 0.1 to 1 µM | Cc1cnc(Nc2cnn(C)c2)nc1N[C@H](CO)c1cc(F)cc(F)c1 [Compound 164] |
| 1 to 10 µM | 1 to 10 µM | 0.1 to 1 µM | OC[C@@H](Nc1nc(Nc2cnn(CC(F)F)c2)ncc1Cl)c1ccccc1F [Compound 165] |
| 1 to 10 µM | 1 to 10 µM | 0.1 to 1 µM | Cc1cnc(Nc2cnn(CC(F)F)c2)nc1N[C@H](CO)c1cc(F)ccc1F [Compound 166] |
